Where two headings read alike, the source gives them in different places.
Tests used:
[1] = test system: KHOS/NP osteosarcoma xenograft; assay: KHOS/NP osteosarcoma xenograft model; assay type: in vivo, nu/nu athymic mice; conditions: day 32; olaratumab 60 mg/kg (loading dose 214 mg/kg), doxorubicin 3 mg/kg, i.p. twice a week; versus saline control
Protocol: 6 to 7-week-old female nu/nu athymic mice are injected with 1×10^6 KHOS/NP (ATCC #CRL-1544) cells/mouse in 50% Matrigel (BD Biosciences #356235). When tumors are approximately 450 mm^3 in volume, the mice are randomized by tumor volume into 4 treatment groups (n=12): Group 1 control mice are dosed with USP Saline (Aldwin Scientific #2F7124) at 10 μL/gram, Group 2 mice are dosed with olaratumab at 60 mg/kg (loading dose 214 mg/kg), Group 3 mice are dosed with doxorubicin (Sigma #D-1515) at 3 mg/kg and Group 4 mice are dosed with a combination of olaratumab and doxorubicin at the monotherapy concentrations of 60 mg/kg olaratumab and 3 mg/kg doxorubicin. The combinations are dosed so that doxorubicin is administered 3 hours prior to olaratumab on the days of treatment. All treatments are administered via intra-peritoneal injection twice a week on Monday and Thursday.
(§1) Olaratumab and doxorubicin are prepared in USP Saline. Tumor volume is measured by three dimensional caliper measurements twice a week during the course of the study and calculated as volume in mm^3=L (longer of measured dimension)×W^2 (shorter dimension)×(pi/6). […] Relative changes in tumor volume (% T/C) are calculated using the tumor volume measurements taken at day 32, whereas the baseline tumor volume is the volume recorded on or just prior to first day of dosing.

[2] = test system: patients with advanced STS; conditions: interim analysis; for Disease Control Rate (CR + PR + SD) (%) (90% CI) / ORR (CR + PR) (%) (90% CI): RECIST 1.1
Protocol: The Study is an open-label, multicenter, Phase 2 trial in which patients with advanced STS not amenable to treatment with surgery or radiotherapy are treated with olaratumab in combination with doxorubicin or doxorubicin alone.
Enrolled patients who meet all eligibility criteria are randomized 1:1 to one of two treatment arms, Arm A or Arm B. Arm A patients receive olaratumab in combination with doxorubicin (hereinafter the “Combination Arm”) and Arm B patients receive doxorubicin alone (hereinafter the “Doxorubicin Arm”). Randomization of this Study is performed according to a dynamic randomization algorithm using 4 pre-defined risk factors: PDGFRα expression (positive vs. negative), number of previous lines of treatment (0 vs. 1+lines), histological tumor type (i.e., leiomyosarcoma vs. synovial sarcoma vs. other tumor type), and ECOG performance status (0-1 vs. 2). This dynamic randomization procedure is used to minimize imbalance between treatment groups. To determine tumor type and PDGFRα expression in patients, a tumor sample from either a biopsy or previously archived tumor tissue sample is sufficient. Biopsy is required to be performed within 21 days prior to randomization; archived tissue sample must also be available within this timeframe.
Combination Arm: 64 patients randomized in the Combination Arm receive 15 mg/kg of olaratumab on Days 1 and 8 of each 21-day treatment cycle, in combination with 75 mg/m^2 doxorubicin administered on Day 1 of each cycle. (Note: if premedication is required prior to the first doxorubicin infusion, this is to be done after the completion of olaratumab infusion, not before the olaratumab infusion. This premedication may be administered within the hour that follows completion of the olaratumab infusion.) The actual (not planned) administration of each doxorubicin infusion defines Day 1 of each 21-day treatment cycle. The combination treatment just described is to continue for up to 8 cycles at the investigator's discretion. During Cycles 5 through 8, patients being treated with doxorubicin may also be administered 750 mg/m^2 dexrazoxane on Day 1 of each cycle, (at the investigator's discretion) prior to doxorubicin on Day 1 of each 21-day cycle. If the dose of doxorubicin is reduced at any point in the Study, the dose of dexrazoxane is to be reduced accordingly, maintaining a dosage ratio of 10:1. For example, if doxorubicin is reduced to 60 mg/m^2, then dexrazoxane is to be reduced to 600 mg/m^2. Doxorubicin may be administered within the hour that follows completion of the olaratumab infusion. In the absence of PD or other withdrawal criteria, patients in the Combination Arm who have completed eight cycles of therapy are to receive subsequent olaratumab monotherapy, administered on Days 1 and 8 of each 21-day cycle. Furthermore, if doxorubicin is discontinued (e.g., for reasons of toxicity) prior to end of cycle 8 and in the absence of withdrawal criteria, patients may continue to receive olaratumab monotherapy. For patients who discontinue olaratumab during the first 8 cycles of treatment, doxorubicin may be continued (for up to 8 cycles), provided no withdrawal criteria are met.
Doxorubicin Arm: 65 patients randomized in the Doxorubicin Arm receive 75 mg/m^2 doxorubicin on Day 1 of each cycle, for up to 8 cycles at the investigator's discretion. The actual (not planned) administration of each doxorubicin infusion defines Day 1 of each 21-day treatment cycle. During cycles 5 through 8, 750 mg/m^2 dexrazoxane may also be administered on Day 1 of each cycle, (at the investigator's discretion) prior to doxorubicin on Day 1 of each 21-day cycle. If the dose of doxorubicin is reduced at any point in the Study, the dose of dexrazoxane is to be reduced accordingly, maintaining a dosage ratio of 10:1. For example, if doxorubicin is reduced to 60 mg/m^2, then dexrazoxane is to be reduced to 600 mg/m^2.

[3] = test system: SKLMS-1 leiomyosarcoma xenograft; assay: SKLMS-1 leiomyosarcoma xenograft model; assay type: in vivo, nu/nu athymic mice; conditions: day 21; olaratumab 60 mg/kg (loading dose 214 mg/kg), doxorubicin 3 mg/kg, i.p. twice a week; versus saline control
Protocol: 6 to 7-week-old female nu/nu athymic mice are injected with 5×10^6 SKLMS-1 (ATCC #HBT-88) cells/mouse in 50% Matrigel (BD Biosciences #356235). When tumors are approximately 300 mm^3 in volume, the mice are randomized by tumor volume into 4 treatment groups (n=12): Group 1 control mice are dosed with USP Saline (Aldwin Scientific #2F7124) at 10 μL/gram, Group 2 mice are dosed with olaratumab at 60 mg/kg (loading dose 214 mg/kg), Group 3 mice are dosed with doxorubicin (Sigma #D-1515) at 3 mg/kg and Group 4 mice are dosed with a combination of olaratumab and doxorubicin at the monotherapy concentrations of 60 mg/kg olaratumab and 3 mg/kg doxorubicin. The combinations are dosed so that olaratumab is administered 1-2 hours prior to doxorubicin on the days of treatment. All treatments are administered via intra-peritoneal injection twice a week on Tuesday and Friday.
as §1, with “21 and” for “32, whereas”

[4] = test system: A204 rhabdoid tumor xenograft; assay: A204 rhabdoid xenograft model; assay type: in vivo, nu/nu athymic mice; conditions: day 30; olaratumab 40 mg/kg i.p. 3x a week; versus HuIgG control
Protocol: 7 to 8-week-old female nu/nu athymic mice are injected with 5×10^6 A204 (ATCC #CRL-7900) cells/mouse in 100% Matrigel (BD Biosciences #356235). When tumors are approximately 340 mm^3 in volume, the mice are randomized by tumor volume into 2 treatment groups (n=12): Group 1 control mice are dosed with HuIgG (Equitech-Bio #SLH66-0001) at 40 mg/kg and Group 2 mice are dosed with olaratumab at 40 mg/kg. All treatments are administered via intra-peritoneal injection 3×a week on Monday, Wednesday and Friday.
Olaratumab is diluted in USP Saline (Aldwin Scientific #2F7124) at 4 mg/mL. Tumor volume is measured by three dimensional caliper measurements twice a week during the course of the study and calculated as volume in mm^3=L (longer of measured dimension)×W^2 (shorter dimension)×(pi/6). A repeated measures ANOVA is used to evaluate the differences in tumor growth and body weight between the treatment groups. Relative changes in tumor volume (%T/C) are calculated using the tumor volume measurements taken at day 30, whereas the baseline tumor volume is the volume recorded on or just prior to first day of dosing.

[5] = patients sub-typed with leiomyosarcoma

COc1cccc2c1C(=O)c1c(O)c3c(c(O)c1C2=O)C[C@@](O)(C(=O)CO)C[C@@H]3O[C@H]1C[C@H](N)[C@H](O)[C@H](C)O1 [doxorubicin]
% T/C (relative change in tumor volume) [1]: 72% | OS Median Weeks (90% CI) ([2]; all STS subtypes, Kaplan-Meier): 58.7 weeks | PFS Median Weeks (90% CI) ([2]; all STS subtypes, Kaplan-Meier, olaratumab 15 mg/kg Days 1 and 8, doxorubicin 75 mg/m^2 Day 1, 21-day cycle): 17.9 weeks | 12-month OS rate ([2]; 12 months): 55.1% | 18-month OS rate ([2]; 18 months): 40.0% | Disease Control Rate (CR + PR + SD) (%) (90% CI) [2]: 53.8% | ORR (CR + PR) (%) (90% CI) [2]: 10.8% | Disease Control Rate (CR + PR + SD) (%) (90% CI) ([2]; listed as Doxorubicin Arm): 53.8% | ORR (CR + PR) (%) (90% CI) ([2]; listed as Doxorubicin Arm): 10.8% | PFS Other Sarcoma Median Weeks (90% CI) ([2]; patients sub-typed as other sarcomas): 19.0 weeks | OS Leiomyosarcoma Median Weeks (90% CI) [2, 5]: 45.3 weeks | PFS Leiomyosarcoma Median Weeks (90% CI) [2, 5]: 15.7 weeks | OS Other Sarcoma Median Weeks (90% CI) ([2]; patients sub-typed with other sarcomas): 78.1 weeks | % T/C (relative change in tumor volume) [3]: 64%

olaratumab: recombinant human monoclonal IgG1 anti-PDGFRα antibody; two heavy chains SEQ ID NO: 9, two light chains SEQ ID NO: 10; CAS 1024603-93-7
% T/C (relative change in tumor volume) [1]: 79% | % T/C (relative change in tumor volume) [4]: 37% | % T/C (relative change in tumor volume) [3]: 64%

From US20170129958A1, “COMBINATION THERAPY” (ImClone LLC, priority 2014, published 2017)
